# In patent US8507656B2, “Stabilized angiopoietin-2 antibodies and uses thereof” (MedImmune Limited, priority 2008, dated 2013):
# Entries after “also recorded” stand apart in the source; their conditions may differ. Like-named read-outs stand apart in the source and are kept apart here. Marks after values point to notes of the source that are not given here.
# What was measured:
# [1] = system: collagen induced arthritis
# [2] = system: collagen-induced arthritis; test: Collagen-induced arthritis (CIA), dose response (Example 11); type: in vivo, male DBA/1 mice
# Colo205 xenograft tumors = test: Colo205 xenograft model of colorectal cancer; type: in vivo; settings: 3.19.3 10 mg/kg 2×wk i.p., Gemcitabine 50 mg/kg q3dx2 i.v., combination of both
# Protocol: (§1) The anti-tumor activity of 3.19.3 was evaluated in combination with Gemcitabine in the Colo205 xenograft model of colorectal cancer. Colo205 cells were cultured in flasks as routine until the cells reached sub-confluence. Cell suspensions containing approximately 3×10E6 cells were injected subcutaneously into the flank of female Swiss nude mice. When the tumor volume reached 200 mm^3, the mice were randomized in treatment groups of 8-10 mice and the treatments were initiated. 3.19.3 (10 mg/kg) in saline was injected intraperitoneally, twice per week for 2 weeks. Gemcitabine (50 mg/kg) was administered by intravenous administration following a q3d schedule. The dimensions of each tumor and body weights were measured at least twice per week. The volume of the tumor was calculated as: Volume=Length×(Width)×0.5 (cm^3). […] The % tumor growth inhibition achieved is as follows: […]
# Calu6 xenograft tumors = type: in vivo; settings: 3.19.3 10 mg/kg 2×wk i.p., Docetaxel 15 mg/kg/week i.v., combination of both
# Protocol: (§2) The anti-tumor activity of 3.19.3 was evaluated in combination with Docetaxel in the Calu6 xenograft model of lung cancer. Calu6 cells were cultured in flasks as routine until the cells reached sub-confluence. Cell suspensions containing approximately 3×10E6 cells were injected subcutaneously into the flank of female Swiss nude mice. When the tumor volume reached 200 mm^3, the mice were randomized in treatment groups of 8-10 mice and the treatments were initiated. 3.19.3 (10 mg/kg) in saline was injected intraperitoneally, twice per week for 2 weeks. Docetaxel (15 mg/kg) was administered by intravenous administration following a weekly schedule. The dimensions of each tumor and body weights were measured at least twice per week. The volume of the tumor was calculated as: Volume=Length×(Width)×0.5 (cm^3).
# HT-29 xenograft tumors = test: HT-29 xenograft model of colorectal cancer; type: in vivo; settings: 3.19.3 10 mg/kg 2×wk i.p., Irinotecan 35 mg/kg/week i.v., combination of both
# Protocol: as §1, with “Irinotecan” for “Gemcitabine”, “HT-29” for “Colo205”, “Irinotecan (35” for “Gemcitabine (50”, “weekly” for “q3d”
# LoVo xenograft tumors = type: in vivo; settings: 3.19.3 10 mg/kg 2×wk i.p., 5FU 100 mg/kg/week i.p., combination of both
# Protocol: as §2, with “5-Fluoruracil (5FU)” for “Docetaxel”, “LoVo” for “Calu6”, “colorectal” for “lung”, “weeks and 5-Flurouracil (100” for “weeks. Docetaxel (15”, “intraperitoneal” for “intravenous”
# H460 xenograft tumors = type: in vivo; settings: 3.19.3 10 mg/kg 2×wk i.p., Oxaliplatin 5 mg/kg/week i.p., combination of both
# Protocol: as §2, with “Oxaliplatin” for “Docetaxel”, “H460” for “Calu6”, “Oxaliplatin (5” for “Docetaxel (15”, “intraperitoneal” for “intravenous”
# MCF7 xenograft tumors = test: MCF7 breast cancer xenograft model; type: in vivo; settings: 3.19.3 10 mg/kg 2×wk i.p., AZD6495 30 mg/kg bid p.o. 18 d, combination of both
# Protocol: The anti-tumor activity of the anti-Angiopoietin-2 monoclonal antibody 3.19.3 in combination with the small molecule CSF1R tyrosine kinase inhibitor AZD6495 (4-[(2,4-difluorophenyl)amino]-7-ethoxy-6-(4-methylpiperazin-1-yl)quinoline-3-carboxamide) was evaluated in a xenograft model of human breast carcinoma using the MCF7 cell line (FIG. 4a).
# Materials and Methods: Breast carcinoma MCF7 cells were cultured in flasks as routine until the cells reach sub-confluence. Immunodeficient 7-10 week old male NCr-nude mice were subcutaneously implanted with 8×10^6 MCF7 cells suspended 1:1 in Matrigel in the right flank. […]
# The mice were then randomized into cohorts containing 15 mice once the tumors reached approximately 100 mm^3. […] The body weights of each animal, and the dimensions of each tumor were measured twice per week. The volume of the tumor was calculated as: Volume=Length×(Width)^2×0.5 cm^3, or by bilateral Vernier caliper measurement and, taking length to be the longest diameter across the tumor and width the corresponding perpendicular, calculated using the formula (π/6)×(length×width)×√(length×width). Growth inhibition from the start of treatment was assessed by comparison of the differences in tumor volume between control and treated groups.
# [3] = system: MDA-MB-231 xenograft tumors; test: MDA-MB-231 orthotopic breast cancer xenograft model; type: in vivo; settings: 3.19.3 10 mg/kg 2×wk i.p., AZD6495 30 mg/kg bid p.o. 18 d, combination of both
# Protocol: The anti-tumor activity of the anti-Angiopoietin-2 monoclonal antibody 3.19.3 in combination with the small molecule CSF1R tyrosine kinase inhibitor AZD6495 was evaluated in a xenograft model of human breast carcinoma using the MDA-MB-231 cell line (FIG. 5a).
# Breast adenocarcinoma MDA-MB-231 cells were cultured in flasks as routine until the cells reach sub-confluence. Immunodeficient 7-10 week old female nude mice were orthotopically implanted with 8×10^6 MDA-MB-231 cells suspended 1:1 in Matrigel into the mammary fat pad. The mice were then randomized into cohorts containing 10 mice once the tumors reached approximately 100 mm^3. The mice were treated by intraperitoneally (IP) injection with mAb 3.19.3 (10 mg/kg) twice per week for 3 weeks thereafter, or by oral administration of AZD6495 (30 mg/kg) following bid dosing for 18 days. […] The body weights of each animal, and the dimensions of each tumor were measured twice per week. The volume of the tumor was calculated as: Volume=Length×(Width)^2×0.5 cm^3, or by bilateral Vernier caliper measurement and, taking length to be the longest diameter across the tumor and width the corresponding perpendicular, calculated using the formula (π/6)×(length×width)×√(length×width). Growth inhibition from the start of treatment was assessed by comparison of the differences in tumor volume between control and treated groups.
# [4] = Stability study: rate of aggregation of antibody formulations; type: physicochemical; settings: 10 mg/ml in 10 mM histidine pH 6.0, two weeks
# Protocol: Samples of the aforementioned formulations were incubated at either 25° C. or 40° C. for two weeks. As a measure of stability, the rate of aggregation (% aggregation/mth) was calculated after the two week time point.
# [5] = Differential Scanning Calorimetry (DSC) analysis; type: physicochemical; settings: 1 g/L antibody in 10 mM histidine, pH 6.0
# [6] = means ± SEM, 3.19.3 10 mg/kg i.p every 3 days, hIgG i.p, Prednisolone 3 mg/kg p.o daily, 14 days from disease onset
# [7] = 3 mg/kg po daily for 14 days from disease onset
molecule,measurement,setting,value
C[C@]12C=CC(=O)C=C1CC[C@@H]1[C@@H]2[C@@H](O)C[C@@]2(C)[C@H]1CC[C@]2(O)C(=O)CO [Prednisolone],histopathological evaluation of arthropathy lesions (in words),"[1]; 3.19.3 10 mg/kg, Human IgG isotype control, Prednisolone 3 mg/kg",marked reduction in the incidence and severity of all arthropathy lesions
same,% Inhibition (of AUC of clinical disease progression),[1]; [6],76.1% ± 9.6%
same,Area Under Curve (AUC) of clinical disease progression,[1]; [6],24.5 ± 9.6
same,% inhibition (AUC of Clinical Score),[2]; [7],78% +/− 7%*
same,AUC of Clinical Score,[2]; [7],41 +/− 08
same,CD31+ microvessel density in synovium (in words),"[2]; 3.19.3 at 1 and 10 mg/kg, prednisolone 3 mg/kg",significant reduction in microvessel density; also recorded: significant reduction in the presence of microvessels
same,incidence and severity of all measures (in words),[2]; Prednisolone 3 mg/kg p.o.,marked reduction in the incidence and severity of all measures
Nc1ccn([C@@H]2O[C@H](CO)[C@@H](O)C2(F)F)c(=O)n1 [Gemcitabine],% tumor growth inhibition,Colo205 xenograft tumors,8%
CC(=O)O[C@@]12CO[C@@H]1C[C@H](O)[C@@]1(C)C(=O)[C@H](O)C3=C(C)[C@@H](OC(=O)[C@H](O)[C@@H](NC(=O)OC(C)(C)C)c4ccccc4)C[C@@](O)([C@@H](OC(=O)c4ccccc4)[C@H]21)C3(C)C [Docetaxel],% tumor growth inhibition,Calu6 xenograft tumors,43%
CCc1c2c(nc3ccc(OC(=O)N4CCC(N5CCCCC5)CC4)cc13)-c1cc3c(c(=O)n1C2)COC(=O)[C@]3(O)CC [Irinotecan],% tumor growth inhibition,HT-29 xenograft tumors,56%
"O=c1[nH]cc(F)c(=O)[nH]1 [5-flurouracil, 5-Flurouracil]",% tumor growth inhibition,LoVo xenograft tumors,62%
same,% tumor growth inhibition,LoVo xenograft tumors; listed as 5 FU,62%
O=C1[O][Pt]2([NH][C@@H]3CCCC[C@H]3[NH]2)[O]C1=O [Oxaliplatin],% tumor growth inhibition,H460 xenograft tumors,35%
"CCOc1cc2ncc(C(N)=O)c(Nc3ccc(F)cc3F)c2cc1N1CCN(C)CC1 [AZD6495, 4-[(2,4-difluorophenyl)amino]-7-ethoxy-6-(4-methylpiperazin-1-yl)quinoline-3-carboxamide]",% tumor growth inhibition,MCF7 xenograft tumors,32%
same,% tumor growth inhibition,[3],25%
"MEDI1/5 IgG1: heavy and light chains SEQ ID Nos. 7 and 3 in IgG1 format (antibody, IgG1 format) VH: QVQLVESGGGVVQPGRSLRLSCAASGFTFTNYGMHWVRQAPGKGLEWVAVISHDGNNKYYVDSVKGRFTISRDNSKNTLYLQMNSLRAEDTAVYYCAREGIDFWSGLNWFDPWGQGTLVTVSS light: EIVLTQSPGTLSLSPGERATLSCRASQSITGSYLAWYQQKPGQAPRLLITGASSWATGIPDRFSGSGSGTDFTLTISRLEPEDFAVYYCQQYSSSPITFGQGTRLEIKRTVAAPSVFIFPPSDEQLKSGTASVVCLLNNFYPREAKVQWKVDNALQSGNSQESVTEQDSKDSTYSLSSTLTLSKADYEKHKVYACEVTHQGLSSPVTKSFNRGEC",% Agg/mth @ 25° C.,[4],0.21 % Agg/mth
same,% Agg/mth @ 40° C.,[4],0.21 % Agg/mth
same,melting temperature,[5],about 76 °C
"MEDI1/5 IgG2: heavy and light chains SEQ ID Nos. 7 and 3 in IgG2 format (antibody, IgG2 format) VH: QVQLVESGGGVVQPGRSLRLSCAASGFTFTNYGMHWVRQAPGKGLEWVAVISHDGNNKYYVDSVKGRFTISRDNSKNTLYLQMNSLRAEDTAVYYCAREGIDFWSGLNWFDPWGQGTLVTVSS light: EIVLTQSPGTLSLSPGERATLSCRASQSITGSYLAWYQQKPGQAPRLLITGASSWATGIPDRFSGSGSGTDFTLTISRLEPEDFAVYYCQQYSSSPITFGQGTRLEIKRTVAAPSVFIFPPSDEQLKSGTASVVCLLNNFYPREAKVQWKVDNALQSGNSQESVTEQDSKDSTYSLSSTLTLSKADYEKHKVYACEVTHQGLSSPVTKSFNRGEC",% Agg/mth @ 25° C.,[4],0.61 % Agg/mth
same,% Agg/mth @ 40° C.,[4],0.82 % Agg/mth
same,melting temperature,[5],about 76 °C
same,behaviour after melting in DSC (in words),[5]; two independent trials,subsequently falls out of solution
